Test results as given in ChEMBL document CHEMBL1201862, “PubChem BioAssay data set” (2004).
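Grown in 96-well plates, cells were treated for 48 hours with each compound at five concentrations. Insufficient inhibition: endpoint recorded as highest concentration tested. GI50 = concentration required for 50% inhibition of growth.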 Activity calls are given as the source filed them. Cut-off read from the data, not from the text of the source: active = GI50 up to about 1.1 µM and inactive = higher.

Experiments:
Experiment in all cases: NCI anticancer screen, dose series, 48 h
MDA-N = test system: MDA-N
MOLT-4 = test system: MOLT-4
HCC 2998 = test system: HCC 2998
DU-145 = test system: DU-145
Malme-3M = test system: Malme-3M
UACC-257 = test system: UACC-257
OVCAR-5 = test system: OVCAR-5
TK-10 = test system: TK-10
UO-31 = test system: UO-31
SF-295 = test system: SF-295
HL-60 = test system: HL-60
SK-OV-3 = test system: SK-OV-3
SF-268 = test system: SF-268
OVCAR-4 = test system: OVCAR-4
MDA-MB-231 = test system: MDA-MB-231
786-0 = test system: 786-0
NCI-H460 = test system: NCI-H460
SR = test system: SR
PC-3 = test system: PC-3
SN12C = test system: SN12C
SW-620 = test system: SW-620
UACC-62 = test system: UACC-62
NCI/ADR-RES = test system: NCI/ADR-RES
RXF 393 = test system: RXF 393
IGROV-1 = test system: IGROV-1
HCT-116 = test system: HCT-116
BT-549 = test system: BT-549
ACHN = test system: ACHN
SNB-19 = test system: SNB-19
MCF7 = test system: MCF7
Hs-578T = test system: Hs-578T
HOP-62 = test system: HOP-62
NCI-H226 = test system: NCI-H226
HCT-15 = test system: HCT-15
SF-539 = test system: SF-539
M14 = test system: M14
A498 = test system: A498
CAKI-1 = test system: CAKI-1
SNB-75 = test system: SNB-75
COLO 205 = test system: COLO 205
T47D = test system: T47D
KM12 = test system: KM12
OVCAR-8 = test system: OVCAR-8
SK-MEL-5 = test system: SK-MEL-5
HT-29 = test system: HT-29
MDA-MB-435 = test system: MDA-MB-435
K562 = test system: K562
SK-MEL-2 = test system: SK-MEL-2
A549 = test system: A549
SK-MEL-28 = test system: SK-MEL-28
HOP-92 = test system: HOP-92
CCRF-CEM = test system: CCRF-CEM
U-251 = test system: U-251
OVCAR-3 = test system: OVCAR-3
NCI-H23 = test system: NCI-H23
EKVX = test system: EKVX
RPMI-8226 = test system: RPMI-8226
NCI-H522 = test system: NCI-H522
LOX IMVI = test system: LOX IMVI

`Clc1ccc(-c2noc(CN3CCCCC3)n2)cc1` was tested, and the GI50 (MDA-N) was > 100 µM (inactive), the GI50 (MOLT-4) was 49.7 µM (inactive) and the GI50 (HCC 2998) was 58.9 µM (inactive). For the same molecule, the GI50 (DU-145) was > 100 µM (inactive), the GI50 (Malme-3M) was > 100 µM (inactive) and the GI50 (UACC-257) was 71 µM (inactive). The GI50 (OVCAR-5) was > 100 µM (inactive), the GI50 (TK-10) was > 100 µM (inactive) and the GI50 (UO-31) was > 100 µM (inactive). For the same molecule, the GI50 (SF-295) was 66.8 µM (inactive), the GI50 (HL-60) was 85.9 µM (inactive) and the GI50 (SK-OV-3) was > 100 µM (inactive). The GI50 (SF-268) was > 100 µM (inactive), the GI50 (OVCAR-4) was > 100 µM (inactive) and the GI50 (MDA-MB-231) was > 100 µM (inactive). For the same molecule, the GI50 (786-0) was > 100 µM (inactive), the GI50 (NCI-H460) was > 100 µM (inactive) and the GI50 (SR) was 63.1 µM (inactive). The GI50 (PC-3) was > 100 µM (inactive), the GI50 (SN12C) was > 100 µM (inactive) and the GI50 (SW-620) was > 100 µM (inactive). The GI50 (UACC-62) was > 100 µM (inactive), the GI50 (NCI/ADR-RES) was 46.5 µM (inactive) and the GI50 (RXF 393) was 44 µM (inactive). For the same molecule, the GI50 (IGROV-1) was > 100 µM (inactive), the GI50 (HCT-116) was 90.2 µM (inactive) and the GI50 (BT-549) was > 100 µM (inactive). The GI50 (ACHN) was > 100 µM (inactive), the GI50 (SNB-19) was > 100 µM (inactive) and the GI50 (MCF7) was > 100 µM (inactive). The GI50 (Hs-578T) was > 100 µM (inactive), the GI50 (HOP-62) was > 100 µM (inactive) and the GI50 (NCI-H226) was > 100 µM (inactive). The GI50 (HCT-15) was greater than 100 µM, the GI50 (SF-539) was > 100 µM (inactive) and the GI50 (M14) was > 100 µM (inactive). The GI50 (A498) was > 100 µM (inactive), the GI50 (CAKI-1) was > 100 µM (inactive) and the GI50 (SNB-75) was > 100 µM (inactive). The GI50 (COLO 205) was 90.2 µM (inactive), the GI50 (T47D) was 47.8 µM (inactive) and the GI50 (KM12) was > 100 µM (inactive). The GI50 (OVCAR-8) was > 100 µM (inactive), the GI50 (SK-MEL-5) was 34 µM (inactive) and the GI50 (HT-29) was 46.2 µM (inactive). The GI50 (MDA-MB-435) was > 100 µM (inactive), the GI50 (K562) was 55.8 µM (inactive) and the GI50 (SK-MEL-2) was > 100 µM (inactive). For the same molecule, the GI50 (A549) was > 100 µM (inactive), the GI50 (SK-MEL-28) was > 100 µM (inactive) and the GI50 (HOP-92) was > 100 µM (inactive). The GI50 (CCRF-CEM) was 77.1 µM (inactive), the GI50 (U-251) was > 100 µM (inactive) and the GI50 (OVCAR-3) was 67.9 µM (inactive). The GI50 (NCI-H23) was > 100 µM (inactive), the GI50 (EKVX) was 54 µM (inactive) and the GI50 (RPMI-8226) was 43.9 µM (inactive). For the same molecule, the GI50 (NCI-H522) was 81.1 µM (inactive).
For `O=c1cnn(C/C=C/CBr)c(=O)[nH]1`, the GI50 (MDA-N) was 14.7 µM (inactive), the GI50 (MOLT-4) was 19.6 µM (inactive) and the GI50 (HCC 2998) was 18.5 µM (inactive). For the same molecule, the GI50 (DU-145) was 24.2 µM (inactive), the GI50 (Malme-3M) was 16.4 µM (inactive) and the GI50 (UACC-257) was 13.9 µM (inactive). For the same molecule, the GI50 (OVCAR-5) was 17.4 µM (inactive), the GI50 (UO-31) was 14.1 µM (inactive) and the GI50 (HL-60) was 8.47 µM (inactive). The GI50 (SF-268) was 17.1 µM (inactive), the GI50 (OVCAR-4) was 20.6 µM (inactive) and the GI50 (MDA-MB-231) was 21.9 µM (inactive). For the same molecule, the GI50 (NCI-H460) was 17.2 µM (inactive), the GI50 (SR) was 17.7 µM (inactive) and the GI50 (PC-3) was 14.9 µM (inactive). The GI50 (SN12C) was 17.9 µM (inactive), the GI50 (LOX IMVI) was 16.1 µM (inactive) and the GI50 (SW-620) was 13.6 µM (inactive). The GI50 (NCI/ADR-RES) was 23.3 µM (inactive), the GI50 (RXF 393) was 15.5 µM (inactive) and the GI50 (IGROV-1) was 16.2 µM (inactive). For the same molecule, the GI50 (BT-549) was 0.527 µM (active), the GI50 (ACHN) was 16.7 µM (inactive) and the GI50 (SNB-19) was 24.7 µM (inactive). For the same molecule, the GI50 (MCF7) was 12.9 µM (inactive), the GI50 (Hs-578T) was 33 µM (inactive) and the GI50 (HOP-62) was 17.9 µM (inactive). For the same molecule, the GI50 (NCI-H226) was 17 µM (inactive), the GI50 (HCT-15) was 18.2 µM and the GI50 (SF-539) was 16.1 µM (inactive). For the same molecule, the GI50 (M14) was 15.3 µM (inactive), the GI50 (A498) was 14.9 µM (inactive) and the GI50 (CAKI-1) was 12.9 µM (inactive). For the same molecule, the GI50 (SNB-75) was 18.8 µM (inactive), the GI50 (COLO 205) was 18.8 µM (inactive) and the GI50 (T47D) was 19.1 µM (inactive). The GI50 (KM12) was 17.5 µM (inactive), the GI50 (OVCAR-8) was 23.1 µM (inactive) and the GI50 (SK-MEL-5) was 13.1 µM (inactive). The GI50 (HT-29) was 13.8 µM (inactive), the GI50 (MDA-MB-435) was 14.9 µM (inactive) and the GI50 (K562) was 21.4 µM (inactive). The GI50 (SK-MEL-2) was 17.1 µM (inactive), the GI50 (A549) was 16.8 µM (inactive) and the GI50 (SK-MEL-28) was 19.2 µM (inactive). For the same molecule, the GI50 (HOP-92) was 14.6 µM (inactive), the GI50 (CCRF-CEM) was 15.2 µM (inactive) and the GI50 (U-251) was 15 µM (inactive). The GI50 (OVCAR-3) was 25.7 µM (inactive), the GI50 (EKVX) was 19.6 µM (inactive) and the GI50 (RPMI-8226) was 5.48 µM (inactive). The GI50 (NCI-H522) was 8.17 µM (inactive).
